The record followed here is ChEMBL document CHEMBL1765067, “Absolute configuration of (-)-gambogic acid, an antitumor agent” (2011).

For this assay, the system named is HT-29. The experiment in a line: Anticancer activity aganist human HT-29 cells. Type of assay: functional. The following applies: read-out: ED50 (the source's name).
Turning to `CC(C)=CCc1c2c(c(O)c3c1O[C@]14C(=C[C@@H]5C[C@H]1C(C)(C)O[C@@]4(C/C=C(/C)C(=O)O)C5=O)C3=O)C=CC(C)(C)O2`, the EC50 stood at 360 nM.

Take `CC(C)=CCC[C@]1(C)C=Cc2c(O)c3c(c(CC=C(C)C)c2O1)O[C@]12C(=C[C@@H]4C[C@H]1C(C)(C)O[C@@]2(C/C=C(/C)C(=O)O)C4=O)C3=O` [GAMBOGIC ACID]: the EC50 was 480 nM.

In the case of `CC(=O)O[C@H]1C(=O)[C@@]2(C)[C@H]([C@H](OC(=O)c3ccccc3)[C@]3(O)C[C@H](OC(=O)[C@H](O)[C@@H](NC(=O)c4ccccc4)c4ccccc4)C(C)=C1C3(C)C)[C@]1(OC(C)=O)CO[C@@H]1C[C@@H]2O` [PACLITAXEL], the EC50 was found to be 0.1 nM.
